The values that follow come from patent US20200375929A1, “METHODS AND COMPOSITIONS FOR THE TREATMENT OF DISEASES ASSOCIATED WITH CANCER, INFLAMMATION, OR IMMUNE RESPONSE” (Washington University, priority 2017, published 2020).

Each structure is given as a SMILES string. “Also recorded” adds a separate entry of the source.

Test [1] has as its system NFkB pathway. The test is described as follows: Canonical NFkB signaling in LPS-stimulated BMDMs (p65 translocation, IKK, IkBa). In kind it is cell-based, mouse. The protocol: (§1) BMDM were prepared from 6- to 12-week-old mice as described 1 and cultured in RMPI-1640 medium supplemented with 10% fetal bovine serum (FBS), 2 mM L-glutamine, and 100 U/mL penicillin-streptomycin and mouse recombinant M-CSF ([…], Peprotech). For experiments, cells were seeded at concentration 10^6 cells/mL in tissue culture plates of various formats. The cells were treated with DI (250 μM (unless stated otherwise), cat #592498, Sigma), DMF (50 μM (unless stated otherwise), cat #242926, Sigma), 3-(ethoxycarbonyl)but-3-enoic acid (3MI, 5 μM, Aris Pharmaceuticals Inc.), 4-ethoxy-2-methylene-4-oxobutanoic acid (MI, Aris Pharmaceuticals Inc.) for 12 h and activated with lipopolysaccharide (LPS; 100 ng/mL; E. coli 0111:B4, Sigma) for 1 h or as indicated. In some experiments cells were stimulated with combination of LPS (20 ng/mL) and IFN-γ (50 ng/mL; Peprotech). In some experiments cells were treated with α-tocopherol (AT, 10 μM; Sigma), MitoTEMPO (MT, 500 μM; Sigma), N-acetylcysteine (NAC, 1 mM, Sigma), ethylester of GSH (EtGSH; 1 mM, Santa Cruz) or buthionene sulfoximine (BSO, 500 μM, Sigma) alone or in combination with DI for 12 h. […]
(§2) Cells were lysed in RIPA Lysis Buffer System (Santa Cruz) and heat-denatured at 95° C. for 5 min in reducing sample buffer (BioRad). […] Non-specific binding was blocked with 5% skim milk (or 5% BSA when phospho-proteins were analyzed), and membranes were probed with primary antibodies specific to Nrf2 (#12721), HO-1 (#70081), IκBζ (mouse specific, #93726), IκBζ(#9244), ATF3 (#D2Y5W), IRAK1 (#4504; sensitivity of IRAK1 detection diminishes upon IRAK1 K63 ubiquitination), phospho-IKK (Ser176/180, #2697), p62/SQSTM1 (#5114), phospho-eIF2α (Ser51, #9721), eIF2α (#5324) from Cell Signaling; GAPDH (sc-25778), IκBα (sc-1643), ATF3 (sc-188), SDHA (sc-166909) from Santa Cruz; NQO1 (ab28947) from Abeam, followed by incubation with anti-rabbit-HRP (1:10,000; sc-2030) or anti-mouse-HRP (1:10,000; sc-2031) from Santa Cruz and Clarity western ECL substrate (Bio-Rad). […]

The subject of test [2] is IκBζ target genes (Defb4, S100a7a, Lcn2, S100a9). Nature of the test: IκBζ target gene expression in IL-17A-stimulated human keratinocytes (qPCR). Type of test: cell-based. The settings on record: DI 12 h. The protocol: RNA from cultured cells was isolated using a Total RNA I kit (OMEGA). RNA from mouse ear skin was extracted using RNAeasy mini kit (Qiagen) after tissue disruption with sterile zirconium beads on a MagNA Lyser (Roche). Isolated RNA was reverse transcribed using AffinityScript Multi-Temp reverse transcriptase (Agilent Technologies) according to the manufacturer's protocol. Reactions were performed in 96-well plates using a SYBR Green PCR Master mix (Thermo Fisher Scientific) using a LightCycler® 96 or LightCycler® 480 (Roche Diagnostics). All assays were performed at least in duplicates, and reaction mixtures in 20 μL volumes (96-plate) or 10 μL volumes (384-plate) were processed under the following cycling conditions: initial 10 min denaturation at 95° C., followed by 40 cycles at 95° C. for 10 s, 60° C. for 1 min. Threshold cycle (CT) values for each sample were determined by automated threshold analysis. Expression levels of all mRNAs were normalized to reference gene Actb in BMDMs or to Rpl19 in mouse keratinocytes and tissue samples; to ACTB in human blood monocytes or RPLP0 in human keratinocytes. The relative increase in the expression level of a gene was normalized to the level of expression in unstimulated control cells in each experiment. IκBζ-dependent genes selected for analysis in macrophages were previously published. […]
For orientation: Real-time PCR tracks product formation cycle by cycle.

Test [3] relates to LY1 and LY7 (GCB) cell lines. Nature of the test: DLBCL cell viability, resazurin assay, GCB subtype. In kind it is cell-based. Conditions: LY1 and LY7, 4 days, refreshed daily; DI 125-250 μM.
The subject of test [4] is ATF3. The test is described as follows: ATF3 protein expression (western blot). In kind it is cell-based, mouse. The settings on record: BMDMs, DI, also on Nrf2−/− background. As for the experimental part: as §1, §2
(In general: In western blotting, separated proteins are transferred to a membrane and probed.)

`C=C(CC(=O)OC)C(=O)OC` [DI, dimethyl itaconate]: in test [1] (BMDMs, DI 250 μM 12 h, LPS), the “p65 nuclear translocation upon LPS” value was “does not inhibit nuclear translocation of p65; also recorded: nor did it prevent LPS-mediated p65 nuclear translocation”. The “IκBα degradation in response to LPS” value in test [1] (BMDMs, DI, LPS) was “did not inhibit IκBα degradation”. For the same compound, the “canonical NFkB response” value in test [1] (DI at concentrations effective to inhibit IL6, p65 translocation, IKK activation, IkBa degradation) is listed as “not affected”. In test [2], the “expression of IL-17A signature / IκBζ target genes” value was “also inhibited; also recorded: downregulated”. In test [3], the “growth / toxicity, GCB DLBCL” value is listed as “not GCB cells”. Moreover, the ATF3 protein result in test [4] is recorded as “upregulated”.
